Experiments:
Experiment in all cases: relative viability (nuclei count vs DMSO), 5 days (fraction); higher = more cells survive
XMD14-99 + Pictilisib = compound: CN1CCN(CC1)C2=CC(=C(C=C2)NC3=NC(=C(S3)C(=O)C4=C(C=CC=C4Cl)Cl)N)OC [XMD14-99] + CS(=O)(=O)N1CCN(Cc2cc3nc(-c4cccc5[nH]ncc45)nc(N4CCOCC4)c3s2)CC1 [Pictilisib] (partner 1 µM)
In short: (§1)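 Relative viability is defined as nuclei in treated wells over nuclei in vehicle wells. Duplicate plates were run and medians reported. Lung cancer cell lines in 1536-well plates were dosed by pin tool one day after seeding, with one drug or with a fixed anchor-drug dose plus five library-drug doses (not always all listed) in √10 steps, and nuclei were counted after 5 days.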

XMD14-99 + Tozasertib = compound: CN1CCN(CC1)C2=CC(=C(C=C2)NC3=NC(=C(S3)C(=O)C4=C(C=CC=C4Cl)Cl)N)OC [XMD14-99] + Cc1cc(Nc2cc(N3CCN(C)CC3)nc(Sc3ccc(NC(=O)C4CC4)cc3)n2)n[nH]1 [Tozasertib] (partner 0.1 µM)
In short: as §1

XMD14-99 + OSI-027 = compound: CN1CCN(CC1)C2=CC(=C(C=C2)NC3=NC(=C(S3)C(=O)C4=C(C=CC=C4Cl)Cl)N)OC [XMD14-99] + COc1cccc2cc(-c3nc([C@H]4CC[C@H](C(=O)O)CC4)n4ncnc(N)c34)[nH]c12 [OSI-027] (partner 0.5 µM)
In short: as §1

XMD14-99 + Crizotinib = compound: CN1CCN(CC1)C2=CC(=C(C=C2)NC3=NC(=C(S3)C(=O)C4=C(C=CC=C4Cl)Cl)N)OC [XMD14-99] + C[C@@H](Oc1cc(-c2cnn(C3CCNCC3)c2)cnc1N)c1c(Cl)ccc(F)c1Cl [Crizotinib] (partner 1 µM)
In short: as §1

XMD14-99 + Linsitinib = compound: CN1CCN(CC1)C2=CC(=C(C=C2)NC3=NC(=C(S3)C(=O)C4=C(C=CC=C4Cl)Cl)N)OC [XMD14-99] + C[C@]1(O)C[C@@H](c2nc(-c3ccc4ccc(-c5ccccc5)nc4c3)c3c(N)nccn32)C1 [Linsitinib] (partner 1 µM)
In short: as §1

Row | Cell Line | relative viability (XMD14-99 + Pictilisib; first compound 0.08 µM) | relative viability (XMD14-99 + Pictilisib; first compound 0.8 µM) | relative viability (XMD14-99 + Pictilisib; first compound 2.53 µM) | relative viability (XMD14-99 + Pictilisib; first compound 8 µM) | relative viability (XMD14-99 + Tozasertib; first compound 0.08 µM) | relative viability (XMD14-99 + Tozasertib; first compound 0.8 µM) | relative viability (XMD14-99 + Tozasertib; first compound 2.53 µM) | relative viability (XMD14-99 + Tozasertib; first compound 8 µM) | relative viability (XMD14-99 + OSI-027; first compound 0.08 µM) | relative viability (XMD14-99 + OSI-027; first compound 0.8 µM) | relative viability (XMD14-99 + OSI-027; first compound 2.53 µM) | relative viability (XMD14-99 + OSI-027; first compound 8 µM) | relative viability (XMD14-99 + Crizotinib; first compound 0.08 µM) | relative viability (XMD14-99 + Crizotinib; first compound 0.8 µM) | relative viability (XMD14-99 + Crizotinib; first compound 2.53 µM) | relative viability (XMD14-99 + Crizotinib; first compound 8 µM) | relative viability (XMD14-99 + Linsitinib; first compound 0.08 µM) | relative viability (XMD14-99 + Linsitinib; first compound 0.8 µM) | relative viability (XMD14-99 + Linsitinib; first compound 2.53 µM) | relative viability (XMD14-99 + Linsitinib; first compound 8 µM)
1 | NCI-H2085 | 0.454 | 0.446 | 0.445 | 0.482 | 0.752 | 0.779 | 0.716 | 0.464 | 0.725 | 0.815 | 0.624 | 0.42 | 0.833 | 0.814 | 0.843 | 0.56 | 0.872 | 0.86 | 0.784 | 0.667
2 | NCI-H2087 | 0.95 | 0.787 | 0.602 | 0.525 | 0.225 | 0.253 | 0.228 | 0.169 | 0.524 | 0.487 | 0.45 | 0.299 | 0.773 | 0.896 | 0.632 | 0.463 | 0.894 | 0.695 | 0.679 | 0.646
3 | NCI-H2126 | 0.5 | 0.527 | 0.508 | 0.473 | 0.811 | 0.806 | 0.791 | 0.693 | 0.666 | 0.66 | 0.669 | 0.432 | 1.01 | 1.02 | 0.979 | 0.937 | 0.739 | 0.705 | 0.668 | 0.628
4 | NCI-H2228 | 0.567 | 0.31 | 0.271 | 0.184 | 0.234 | 0.258 | 0.187 | 0.148 | 0.687 | 0.583 | 0.505 | 0.199 | 0.37 | 0.447 | 0.48 | 0.301 | 0.702 | 0.524 | 0.476 | 0.221
5 | NCI-H2347 | 0.519 | 0.871 | 0.477 | 0.431 | 0.555 | 0.641 | 0.442 | 0.405 | 0.401 | 0.349 | 0.378 | 0.276 | 0.803 | 0.531 | 0.737 | 0.501 | 1.02 | 1.02 | 0.873 | 0.633
6 | NCI-H2405 | 0.39 | 0.414 | 0.457 | 0.248 | 0.758 | 0.713 | 0.701 | 0.501 | 0.593 | 0.606 | 0.607 | 0.5 | 0.84 | 0.858 | 0.863 | 0.674 | 0.913 | 0.992 | 0.9 | 0.566
7 | NCI-H3122 | 0.563 | 0.474 | 0.446 | 0.326 | 0.407 | 0.314 | 0.295 | 0.179 | 0.815 | 0.811 | 0.623 | 0.163 | 0.267 | 0.229 | 0.262 | 0.251 | 1 | 1.02 | 0.88 | 0.678
8 | PC-3 [JPC-3] | 0.793 | 0.73 | 0.717 | 0.586 | 0.889 | 0.828 | 0.789 | 0.705 | 0.769 | 0.701 | 0.638 | 0.541 | 1.05 | 0.955 | 0.916 | 0.781 | 1.04 | 0.878 | 0.828 | 0.844
9 | PC-14 | 0.621 | 0.611 | 0.573 | 0.312 | 0.584 | 0.572 | 0.599 | 0.368 | 0.809 | 0.806 | 0.644 | 0.29 | 0.824 | 0.796 | 0.866 | 0.714 | 1.08 | 0.932 | 0.958 | 0.684
10 | RERF-LC-KJ | 0.668 | 0.521 | 0.487 | 0.477 | 0.507 | 0.464 | 0.408 | 0.374 | 0.572 | 0.556 | 0.527 | 0.366 | 0.891 | 0.836 | 0.845 | 0.699 | 0.878 | 0.888 | 0.873 | 0.743
11 | SK-LU-1 | 0.554 | 0.576 | 0.545 | 0.344 | 0.34 | 0.298 | 0.355 | 0.254 | 0.34 | 0.391 | 0.301 | 0.213 | 0.788 | 0.923 | 0.796 | 0.58 | 0.872 | 1.2 | 1.07 | 0.671
12 | SK-MES-1 | 0.407 | 0.327 | 0.349 | 0.247 | 0.925 | 0.861 | 0.761 | 0.5 | 0.589 | 0.506 | 0.54 | 0.291 | 0.991 | 0.946 | 1.01 | 0.639 | 1.08 | 1.04 | 1.03 | 0.754
13 | SW 1573 | 0.434 | 0.531 | 0.496 | 0.547 | 0.168 | 0.286 | 0.198 | 0.21 | 0.629 | 0.758 | 0.599 | 0.493 | 0.792 | 0.878 | 0.793 | 0.757 | 0.723 | 0.785 | 0.782 | 0.885

From the supplement of paper PMC10307832
